From patent US20090233997A1, “COMPOSITION FOR PROMOTING SYNTHESIS OF COLLAGEN, AND COMPOSITION FOR EXTERNAL PREPARATION FOR SKIN COMPRISING THE SAME” (LG HOUSEHOLD & HEALTH CARE, LTD., priority 2003, published 2009)
In brackets after ≈: the same amount, converted by molar mass. Several values for one entry are separate records, joined by “and”; a condition that tells them apart may be missing. Identical values can stand only once.

How the values were obtained:
[1] = system: ear edema of hairless mice; assay: Anti-inflammatory effect, ear swelling method (arachidonic acid); type: in vivo; conditions: 1 wt % in ethanol, 20 μl/ear, 2 mg/ear arachidonic acid, test ear vs controlled ear, group of 3
Protocol: The anti-inflammatory effect was evaluated in an ear swelling method by using 6-week-old hairless mice. The left ears of the hairless mice were used as controlled areas to be compared with the test areas, and the right ears of the hairless mice were used as the test areas. Prior to the test, both ears of all the hairless mice were measured three times. Sample solutions were prepared by extracting xanthotoxol, 8-hydroxybergapten, and prangenidin in accordance with […] and dissolving them in ethanol at 1 wt %, individually. Then, 20 μl/ear sample solutions were applied to the right ears of the hairless mice, and 20 μl/ear of ethanol was applied to the left ear thereof. An hour later, 2 mg/ear of arachidonic acid was applied to both ears of the hairless mice. After another hour had passed, the extent of ear edema was measured by using a micrometer, three times. Also, for comparison purposes, the anti-inflammatory effect of indomethacine, which is generally known as an anti-inflammatory agent, was measured with the same method.
The anti-inflammatory effect was a ratio of a thickness of an ear in the test area to the thickness of an ear in the controlled area. It was calculated based on the following Equation 1 and presented as a damage rate.
Damage rate (%)=(thickness of ear in test area/thickness of ear in controlled area)×100 Equation 1

[2] = system: skin wrinkles of hairless mice; assay: Anti-wrinkle effect on hairless mice with light-induced skin wrinkles; type: in vivo; conditions: 5 mg/ml in 1,3-butyleneglycol, treated 6 weeks, group of 10
Protocol: The anti-wrinkle effects of xanthotoxol, 8-hydroxybergapten, and prangenidin were tested with respect to 6-week-old hairless mice having skin wrinkles caused by radiating light. Samples were prepared by extracting xanthotoxol, 8-hydroxybergapten, and prangenidin in accordance with Examples 1 through 3 and dissolving them in 1,3-butyleneglycol to thereby prepare 5 mg/ml sample solutions.
The skin wrinkles were caused by radiating light of 2 Minimum Erythema Dose (MED) to hairless mice with a solar simulator, three days a week for 10 weeks. Then, the improvement was assayed based on quality with respect to a control group of hairless mice treated with 1,3-butyleneglycol and test groups of hairless mice treated with the 5 mg/ml samples for 6 weeks.
The extent of wrinkle improvement was determined with the naked bare eye and by photographing the areas treated with the samples. The test groups and the control group were compared and the result was determined in three steps: no improvement; some improvement; and remarkable improvement.

[3] = Antioxidative effect in the DPPH scavenging method; conditions: 30 minutes, 517 nm
Protocol: The antioxidative effects of 8-hydroxybergapten and prangenidin were measured by using 1,1-diphenyl-2-picrylhydrazyl (DPPH). The radical scavenging activity of each sample was calculated by measuring an optical density (O.D.) at 517 nm with a spectrophotometer. Sample solutions were prepared by extracting samples, i.e., 8-hydroxybergapten and prangenidin, in accordance with the methods of Examples 2 and 3 and mixing the samples in concentrations of 3 μg/ml, 5 μg/ml, 10 μg/ml, 12 μg/ml, 50 μg/ml, 80 μg/ml, and 100 μg/ml, individually. Then, experimental solutions were prepared by mixing the 500 μl aliquots of the tested sample solutions with 500 μl of a 1.5×10^−4 M DPPH methanolic solution. The quantity of DPPH remaining in each experimental solution was measured 30 minutes after the preparation of experimental solutions by using the spectrophotometer at 517 nm. In order to subtract the inherent optical densities of the samples from the measurement values of the experimental solutions, the optical densities of the sample solutions of the same concentrations were also measured at 517 nm. A control solution was prepared by mixing 500 μl of a 1.5×10^−4 M DPPH methanolic solution with 500 μl of a methanol solution and using the mixture 30 minutes after the preparation. The radical scavenging activity of each sample was calculated based on the following Equation 2.
To determine the radical scavenging activity of each sample, a coefficient of correlation (R), which is a value in connection with the radical scavenging activity, was obtained, and an IC50, a value that scavenges DPPH by 50%, was calculated. Also, in order to compare the antioxidative effects, the same experiment was carried out with respect to vitamin C.

human fibroblasts = assay: Collagen synthesis effect in human fibroblast culture (PICP EIA Kit); type: cell-based; conditions: for Quantity of Synthesized Collagen: cultured one day, 450 nm, n=6; for Increase Rate: relative ratio to collagen generation of control group
Protocol: The collagen synthesis effect of Xanthotoxol was tested by adding Xanthotoxol to a culture broth for human fibroblasts. The quantity of the synthesized collagen was assayed by using a Procollagen Type I C-Peptide Enzyme ImmunoAssay (PICP EIA) Kit.
Xanthotoxol solution aliquots having final concentrations of 0.5 μg/ml, 1 μg/ml, 2 μg/ml, 5 μg/ml, and 10 μg/ml were added to a culture media for human fibroblasts, and the fibroblasts were cultured for one day. The culture broth of each concentration was taken out and the quantity of synthesized collagen was measured with a spectrophotometer at 450 nm by using the PICP EIA Kit.
To compare the effect of collagen synthesis, the human fibroblasts were cultured in a culture medium to which no extra element was added (i.e., a control group) and in a culture medium to which vitamin C having a final concentration of 52.8 μg/ml was added, and the quantity of synthesized collagen was measured with respect to the two samples with the same method as above.
The quantity of generated collagen was measured by using an ultraviolet ray (UV) spectrophotometer, and the increase rate of collagen generation was calculated in a relative ratio with respect to the collagen generation quantity of the control group.
The quantity of synthesized collagen and the increase rate of collagen were measured with the same method as in Experimental Example 1, except that 8-hydroxybergapten was used instead of xanthotoxol.
The quantity of synthesized collagen and the increase rate of collagen were measured with the same method as in Experimental Example 1, except that prangenidin was used instead of xanthotoxol.

incision wounds of rats = assay: Wound healing effect, tension stiffness method; type: in vivo; conditions: for Tensile Strength: 1 wt % in ethanol, 0.5 ml/cm^2 once every day for 6 days; for Strength Rate: relative to control group (ethanol only) taken as 100%
Protocol: A wound healing effect was tested with respect to 5-week-old male rats by using a tension stiffness method that reflects the quality and quantity of restoration from wounds. The backs of the rats were shaved and wounded with a scalpel, and then the incision was sutured. Sample solutions were prepared by extracting 8-hydroxybergapten and prangenidin in accordance with Examples 2 and 3, and dissolving them in ethanol at 1 wt %, individually. The sample solutions were injected into the incisions at 0.5 ml/cm^2 once every day for 6 days. After 6 days, the rats were sacrificed and the skin around the wounds was removed. Three skin specimens of 1 cm-wide skin flakes crossing the incision line were prepared for each individual and their tensile strength (g/cm) was measured by using a rheometer. The measured tensile strength was used as an index of the strength of the generated collagen fiber. The tensile strength of the control group, to which only ethanol without the sample therein was applied, was taken as 100% and the increase in the tensile strength was measured as a relative strength thereto.

Compound | IC 50 (scavenges DPPH by 50%) [3] [µg/mL] | Damage Rate [1] [%] | No Improvement (number of mice) [2] | Remarkable Improvement (number of mice) [2] | Some Improvement (number of mice) [2] | Quantity of Synthesized Collagen (human fibroblasts; 0.5 μg/ml) [Abs] | Increase Rate (human fibroblasts; 0.5 μg/ml) [%] | Quantity of Synthesized Collagen (human fibroblasts; 1.0 μg/ml) [Abs] | Increase Rate (human fibroblasts; 1.0 μg/ml) [%] | Quantity of Synthesized Collagen (human fibroblasts; 2.0 μg/ml) [Abs] | Increase Rate (human fibroblasts; 2.0 μg/ml) [%] | Quantity of Synthesized Collagen (human fibroblasts; 5.0 μg/ml) [Abs] | Increase Rate (human fibroblasts; 5.0 μg/ml) [%] | Quantity of Synthesized Collagen (human fibroblasts; 10.0 μg/ml) [Abs] | Increase Rate (human fibroblasts; 10.0 μg/ml) [%] | Tensile Strength (incision wounds of rats) [g/cm] | Strength Rate (incision wounds of rats) [%] | Quantity of Synthesized Collagen (human fibroblasts; 52.8 μg/ml) | Increase Rate (human fibroblasts; 52.8 μg/ml)
COc1ccc2c(c1)c(CC(=O)O)c(C)n2C(=O)c1ccc(Cl)cc1 [Indomethacine, indomethacine, reference compound] | – | 51 | – | – | – | – | – | – | – | – | – | – | – | – | – | – | – | – | –
O=c1ccc2cc3ccoc3c(O)c2o1 [Xanthotoxol, 8-hydroxypsoralen] | 24.0 (≈ 119 µM) | 42 | 2 | 3 | 5 | 1.449 ± 0.039 | 128.36 | 1.535 ± 0.078 | 135.94 | 1.623 ± 0.084 | 143.75 | 1.651 ± 0.130 | 146.24 | 1.657 ± 0.112 | 146.81 | 642 | 117 | – | –

Second part, led by results:

IC 50 (scavenges DPPH by 50%) [3] [µg/mL] | Compound | Damage Rate [1] [%] | No Improvement (number of mice) [2] | Remarkable Improvement (number of mice) [2] | Some Improvement (number of mice) [2] | Quantity of Synthesized Collagen (human fibroblasts; 0.5 μg/ml) [Abs] | Increase Rate (human fibroblasts; 0.5 μg/ml) [%] | Quantity of Synthesized Collagen (human fibroblasts; 1.0 μg/ml) [Abs] | Increase Rate (human fibroblasts; 1.0 μg/ml) [%] | Quantity of Synthesized Collagen (human fibroblasts; 2.0 μg/ml) [Abs] | Increase Rate (human fibroblasts; 2.0 μg/ml) [%] | Quantity of Synthesized Collagen (human fibroblasts; 5.0 μg/ml) [Abs] | Increase Rate (human fibroblasts; 5.0 μg/ml) [%] | Quantity of Synthesized Collagen (human fibroblasts; 10.0 μg/ml) [Abs] | Increase Rate (human fibroblasts; 10.0 μg/ml) [%] | Tensile Strength (incision wounds of rats) [g/cm] | Strength Rate (incision wounds of rats) [%] | Quantity of Synthesized Collagen (human fibroblasts; 52.8 μg/ml) | Increase Rate (human fibroblasts; 52.8 μg/ml)
20.3 (≈ 87.4 µM) | COc1c2ccoc2c(O)c2oc(=O)ccc12 [8-Hydroxybergapten, 5-benzofuranacrylic acid and 6,7-dihydroxy-4-methoxy-, delta-lactone] | 45 | 0 | 6 | 4 | 1.590 ± 0.102 | 121.4 | 1.876 ± 0.097 | 143.2 | 1.949 ± 0.111 | 148.8 | 1.953 ± 0.132 | 149.1 | 2.008 ± 0.129 | 153.3 | 680 | 124 | – | –
21.6 (≈ 79.9 µM) | CC(C)=CCc1c2ccoc2c(O)c2oc(=O)ccc12 [Prangenidin, 5-Benzofuranacrylic acid, 6,7-dihydroxy-4-(3-methyl-2-butenyl)-delta-lactone] | 40 | 1 | 4 | 5 | 1.537 ± 0.099 | 115.6 | 1.778 ± 0.121 | 133.7 | 1.801 ± 0.135 | 135.4 | 1.813 ± 0.130 | 136.3 | 1.820 ± 0.204 | 136.8 | 663 | 121 | – | –
8.43 (≈ 47.9 µM) | O=C1O[C@H]([C@@H](O)CO)C(O)=C1O [Vitamin C, vitamin C, reference compound] | – | – | – | – | – | – | – | – | – | – | – | – | – | – | – | – | 1.598 ± 0.145 Abs and 1.757 ± 0.121 Abs and 1.739 ± 0.145 Abs | 141.57% and 134.1% and 130.8%
